Measurements reported in PubChem BioAssay AID1963981 (Molecular Pharmacology Branch, DTP, NCI, 2024).

Test system: 354836-022-R-J1-PDC multicell spheroid viability
Test: Anticancer human tumor 354836-022-R-J1-PDC patient-derived head and neck squamous cell carcinoma cell line growth inhibition [PI3K]
Settings: for IC50: curve of first compound; for viability, T/C: stronger effect = lower value
In short: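 Tumor cells grown as multi-cell spheroids with HUVEC endothelial cells and MSC fibroblast-like stroma were treated with targeted agents combined with inavolisib, alpelisib, duvelisib or copanlisib. Doses fell in half-log steps from near clinical Cmax, else from 10 microM. Viability was measured.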

[1] = second compound 0.0316 µM, first compound 0.0316 µM
[2] = second compound 0.0316 µM, first compound 0.1 µM
[3] = second compound 0.0316 µM, first compound 0.316 µM
[4] = second compound 0.0316 µM, first compound 1 µM
[5] = second compound 0.0316 µM, first compound 3.16 µM
[6] = second compound 0.0316 µM, first compound 10 µM
[7] = second compound 0.1 µM, first compound 0.0316 µM
[8] = second compound 0.1 µM, first compound 0.1 µM
[9] = second compound 0.1 µM, first compound 0.316 µM
[10] = second compound 0.1 µM, first compound 1 µM
[11] = second compound 0.1 µM, first compound 3.16 µM
[12] = second compound 0.1 µM, first compound 10 µM
[13] = second compound 0.316 µM, first compound 0.0316 µM
[14] = second compound 0.316 µM, first compound 0.1 µM
[15] = second compound 0.316 µM, first compound 0.316 µM
[16] = second compound 0.316 µM, first compound 1 µM
[17] = second compound 0.316 µM, first compound 3.16 µM
[18] = second compound 0.316 µM, first compound 10 µM
[19] = second compound 1 µM, first compound 0.0316 µM
[20] = second compound 1 µM, first compound 0.1 µM
[21] = second compound 1 µM, first compound 0.316 µM
[22] = second compound 1 µM, first compound 1 µM
[23] = second compound 1 µM, first compound 3.16 µM
[24] = second compound 1 µM, first compound 10 µM
[25] = second compound 3.16 µM, first compound 0.0316 µM
[26] = second compound 3.16 µM, first compound 0.1 µM
[27] = second compound 3.16 µM, first compound 0.316 µM
[28] = second compound 3.16 µM, first compound 1 µM
[29] = second compound 3.16 µM, first compound 3.16 µM
[30] = second compound 3.16 µM, first compound 10 µM
[31] = second compound 10 µM, first compound 0.0316 µM
[32] = second compound 10 µM, first compound 0.1 µM
[33] = second compound 10 µM, first compound 0.316 µM
[34] = second compound 10 µM, first compound 1 µM
[35] = second compound 10 µM, first compound 3.16 µM
[36] = second compound 10 µM, first compound 10 µM
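Further: spheroids exposed to agents for seven days before the viability read.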

SMILES: Cn1ncc(Cl)c1-c1cc(C(=O)NC(CN)Cc2cccc(F)c2)sc1Cl (centres undefined) + Cc1nc(NC(=O)N2CCCC2C(N)=O)sc1-c1ccnc(C(C)(C)C(F)(F)F)c1
- IC50 (second compound 0.0316 µM): 0.0998 µM
- IC50 (second compound 0.1 µM): 0.105 µM
- IC50 (second compound 0.316 µM): 0.157 µM
- IC50 (second compound 1 µM): 0.115 µM
- IC50 (second compound 3.16 µM): 0.0324 µM
- IC50 (second compound 10 µM): < 0.0316 µM
- viability, T/C [1]: 78.8%
- viability, T/C [2]: 46.8%
- viability, T/C [3]: 32.6%
- viability, T/C [4]: 20.9%
- viability, T/C [5]: 17.9%
- viability, T/C [6]: 3.64%
- viability, T/C [7]: 79.4%
- viability, T/C [8]: 45%
- viability, T/C [9]: 36.2%
- viability, T/C [10]: 21.6%
- viability, T/C [11]: 16.7%
- viability, T/C [12]: 4.82%
- viability, T/C [13]: 64.3%
- viability, T/C [14]: 63.8%
- viability, T/C [15]: 31.2%
- viability, T/C [16]: 23%
- viability, T/C [17]: 19.3%
- viability, T/C [18]: 4.88%
- viability, T/C [19]: 59.5%
- viability, T/C [20]: 53.6%
- viability, T/C [21]: 36.9%
- viability, T/C [22]: 21.2%
- viability, T/C [23]: 14.4%
- viability, T/C [24]: 3.77%
- viability, T/C [25]: 48.9%
- viability, T/C [26]: 44.9%
- viability, T/C [27]: 25.4%
- viability, T/C [28]: 18.1%
- viability, T/C [29]: 11.6%
- viability, T/C [30]: 4.32%
- viability, T/C [31]: 34.2%
- viability, T/C [32]: 29.4%
- viability, T/C [33]: 21.9%
- viability, T/C [34]: 14.8%
- viability, T/C [35]: 8.76%
- viability, T/C [36]: 3.16%

SMILES: Cn1nccc1Nc1nccc(-c2ccn(C(CO)c3ccc(Cl)c(F)c3)c(=O)c2)n1 (centres undefined) + Cc1nc(NC(=O)N2CCCC2C(N)=O)sc1-c1ccnc(C(C)(C)C(F)(F)F)c1
- IC50 (second compound 0.0316 µM): > 10 µM
- IC50 (second compound 0.1 µM): > 10 µM
- IC50 (second compound 0.316 µM): > 10 µM
- IC50 (second compound 1 µM): > 10 µM
- IC50 (second compound 3.16 µM): > 10 µM
- IC50 (second compound 10 µM): < 0.0316 µM
- viability, T/C [1]: 100%
- viability, T/C [2]: 91%
- viability, T/C [3]: 101%
- viability, T/C [4]: 92.5%
- viability, T/C [5]: 97.2%
- viability, T/C [6]: 95.1%
- viability, T/C [7]: 99.2%
- viability, T/C [8]: 92.5%
- viability, T/C [9]: 102%
- viability, T/C [10]: 88.7%
- viability, T/C [11]: 101%
- viability, T/C [12]: 91.3%
- viability, T/C [13]: 95%
- viability, T/C [14]: 91.3%
- viability, T/C [15]: 87.7%
- viability, T/C [16]: 89.3%
- viability, T/C [17]: 108%
- viability, T/C [18]: 101%
- viability, T/C [19]: 76.2%
- viability, T/C [20]: 89.7%
- viability, T/C [21]: 77.9%
- viability, T/C [22]: 79.1%
- viability, T/C [23]: 100%
- viability, T/C [24]: 90.3%
- viability, T/C [25]: 58.4%
- viability, T/C [26]: 67.5%
- viability, T/C [27]: 61.9%
- viability, T/C [28]: 61.8%
- viability, T/C [29]: 72.4%
- viability, T/C [30]: 50.1%
- viability, T/C [31]: 35.6%
- viability, T/C [32]: 41.5%
- viability, T/C [33]: 31.4%
- viability, T/C [34]: 33.7%
- viability, T/C [35]: 25.8%
- viability, T/C [36]: 14.7%
